Test results from publication PMC10881971, “Hepa-ToxMOA: a pathway-screening method for evaluating cellular stress and hepatic metabolic-dependent toxicity of natural products” (Scientific Reports, 2024).

Legend:
[1] = test system: diabetic C57BL/KsJ-db/db mice; design: method as in PMID 29554661; conditions: cited from earlier work
[2] = test system: AP1, P53, Nrf2, and NF-κB; conditions: for Toxic (natural products exceeding Score 3, Venn diagram list Fig. 3c): human
CYP3A = test system: CYP3A; design: method as in PMID 30778299; conditions: cited from earlier work
CYP3A4 [3] = conditions: cited from earlier work
CYP3A5 = test system: CYP3A5; design: method as in doi:10.1016/j.ccr.2020.213600; conditions: cited from earlier work
AP1 = AP1 cell line, CPPA 6.25, 12.5, 25 μM, 24 h, S9 fraction (Fig. 2b)
[4] = test system: Hepa-ToxMOA cell lines (HepG2); conditions: four Hepa-ToxMOA cell lines, increasing CPPA concentration (6.25, 12.5, 25 μM), 1% S9 treatment, 24 h
NF-κB = NF-κB cell line, CPPA 6.25, 12.5, 25 μM, 24 h, S9 fraction (Fig. 2b)
liver fibrosis = test system: liver fibrosis; design: method as in PMID 30502394; conditions: cited from earlier work
diabetic mice = test system: diabetic mice; design: method as in PMID 34678724; conditions: cited from earlier work
CYP2C19 = test system: CYP2C19; design: method as in PMID 25815638; conditions: causing mitochondrial dysfunction and hepatotoxicity; cited from earlier work
CYP3A4 [5] = test system: CYP3A4; design: method as in PMID 20959500; conditions: via the activation of NR1I2; cited from earlier work

SMILES: CC(C)=CC[C@H](O)C1=CC(=O)c2c(O)ccc(O)c2C1=O [Alkannin]
- effect on liver injury [1]: hepatoprotective effects
- sum of activity scores compared between metabolic activation and non-metabolic conditions [2]: more active without metabolic activation
- toxicity in Hepa-ToxMOA cell lines under metabolic activity conditions [2]: reduced toxicity
- Toxic (natural products exceeding Score 3, Venn diagram list Fig. 3c) [2]: S9- only

SMILES: CC(=O)O[C@H]1C[C@]2(O)[C@@H]3CC[C@@H]4C[C@@H](O)CC[C@]4(C)[C@H]3CC[C@]2(C)[C@H]1c1ccc(=O)oc1 [Bufotalin]
- metabolism by CYP3A (CYP3A): metabolized by CYP3A to 5ß-hydroxy-bufotalin
- substrate of CYP3A4 (CYP3A4 [3]): substrates
- active (increased GFP intensity) for all Hepa-ToxMOA cell lines (Fig. 3d) [2]: commonly active
- sum of activity scores compared between metabolic activation and non-metabolic conditions [2]: more active without metabolic activation
- Toxic (natural products exceeding Score 3, Venn diagram list Fig. 3c) [2]: S9- only
- substrate of CYP3A5 (CYP3A5): substrates

SMILES: O=P1(N(CCCl)CCCl)NCCCO1 (stereo not drawn) [CPPA, cyclophosphamide, reference compound]
- GFP intensity (AP1): increased in a dose-dependent manner
- GFP intensity (P53): tendency to increase, although not in a dose-dependent manner
- cell viability [4]: significantly reduced
- GFP intensity with S9 fractions compared to without S9 fractions [2]: higher
- GFP intensity (Nrf2): increased in a dose-dependent manner
- GFP intensity (NF-κB): increased in a dose-dependent manner

SMILES: CC(C)=CCc1c(O)cc2oc3cc(O)c(O)c(CC=C(C)C)c3c(=O)c2c1O [Gamma-mangostin]
- effect on liver fibrosis (liver fibrosis): alleviate liver fibrosis
- fasting blood glucose levels (diabetic mice): attenuate fasting blood glucose levels

SMILES: O=C(O)c1cc(O)c2c(c1)C(=O)c1cccc(O)c1C2=O [Rhein]
- metabolic activation by CYP2C19 (CYP2C19): metabolically activated by CYP2C19

SMILES: CC[C@]1(O)C[C@@H]2CN(CCc3c([nH]c4ccccc34)[C@@](C(=O)OC)(c3cc4c(cc3OC)N(C)[C@H]3[C@@](O)(C(=O)OC)[C@H](OC(C)=O)[C@]5(CC)C=CCN6CC[C@]43[C@@H]65)C2)C1 [vinblastine, reference compound]
- substrate of CYP3A4 (CYP3A4 [3]): substrate
- induction of CYP3A4 (CYP3A4 [5]): induce CYP3A4
